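Exposure lasted 48 hours, with cells grown in 96-well plates and compounds tested at five concentrations. GI50 is the concentration that inhibits growth by half. At the TGI there is no net growth.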

What all share (test): NCI anticancer screen, dose series, 48 h
Experiment [1] relates to OVCAR-5 ovarian.
Experiment [2] deals with CCRF-CEM leukemia.
Experiment [3] concerns SW-620 colon.
Experiment [4] relates to NCI-H23 lung.
Experiment [5] concerns KM12 colon.
The subject of experiment [6] is DU-145 prostate.
For experiment [7], the system named is IGROV1 ovarian.
The test system of experiment [8] is COLO 205 colon.
For experiment [9], the system named is UO-31 renal.
Experiment [10] has as its system OVCAR-8 ovarian.

In the case of `CC1=Cc2cc3[n-]c(cc4nc(cc5[n-]c(cc1n2)cc5C)C(C)=C4CCC(=O)O)c(CCC(=O)O)c3C.[Pd+2]`, the GI50 in experiment [1] is 41.6 µM; in experiment [2], 5.37 µM; in experiment [3], 15.2 µM; in [4], 9.55 µM; in experiment [5] it was 27 µM; in [6] it was greater than 100 µM. The GI50 in experiment [7] is 14.2 µM; in [8], 16.8 µM; in [9] it was 9.73 µM. The TGI in experiment [1] is 58.2 µM; in experiment [2] it was 13.7 µM; in experiment [3], greater than 63.4 µM; in experiment [4] it was 25.2 µM; in experiment [5], 53.3 µM; in experiment [6], greater than 100 µM. Besides, the TGI is 25.6 µM in [7], 41.6 µM in [8] and 21.5 µM in [9].
Consider `COc1nc(C)cc2c(=O)n(-c3ccccc3)n(CCCN3CCN(c4ccc(Cl)cc4)CC3)c(=O)c12`, for which the GI50 is greater than 50 µM in experiment [1]; 43.8 µM in experiment [3]; greater than 50 µM in experiment [4]; greater than 50 µM in experiment [5]; greater than 50 µM in experiment [6]; greater than 50 µM in [7]. For the same molecule, the GI50 in experiment [8] is greater than 50 µM; in experiment [9], 31.9 µM. Besides, the TGI in experiment [1], in experiment [3], in experiment [4], in [5], in experiment [6] and in [7] was greater than 50 µM in each case. The TGI in [8] and in [9] was greater than 50 µM each time.
As to `C=C(CN1CCc2ccccc2C1)c1ccc(C(=O)Nc2ccc(N)cc2)cc1`, the GI50 in [1] is 29.9 µM; in experiment [2], 0.454 µM; in experiment [3], 30.5 µM; in experiment [4] it was 17.4 µM; in experiment [5], 20.4 µM; in experiment [6], 21.1 µM. Moreover, the values for the GI50 in experiment [8], in [10] and in experiment [9] were 22.7 µM, 22.6 µM and 3.93 µM, respectively. Besides, the TGI is greater than 100 µM in experiment [1]; greater than 100 µM in experiment [2]; greater than 100 µM in [3]; greater than 100 µM in experiment [4]; 48.4 µM in experiment [5]; 81.3 µM in experiment [6]. In addition, the TGI was 60.6 µM in experiment [8], 77.7 µM in [10] and 30.5 µM in [9].
As for `O=C1C=Cc2ccccc2/C1=C/c1[nH]c(=O)[nH]c1O`, the GI50 in experiment [1] is 42.8 µM; in experiment [2], 4.01 µM; in experiment [4], 8.19 µM; in [5], 2.99 µM; in experiment [6], 5.8 µM; in experiment [7] it was 1.39 µM. Besides, the GI50 was 3.59 µM in [8], 9.6 µM in experiment [10] and 1.78 µM in experiment [9]. In addition, the TGI in [1] is greater than 100 µM; in experiment [2] it was greater than 100 µM; in experiment [4], greater than 100 µM; in experiment [5] it was 9.34 µM; in experiment [6], 76.8 µM; in [7], 26.6 µM. In addition, the TGI in experiment [8] is 31.9 µM; in experiment [10], 62.5 µM; in experiment [9], 28.5 µM.
On to `COC(=O)/C(=C\c1c(C)[nH]c2ccccc12)S(=O)(=O)c1ccccc1`, for which the GI50 in [1] is 17.4 µM; in [3], 5.15 µM; in [4], 4.81 µM; in experiment [5], 2.37 µM; in experiment [6], 2.94 µM; in experiment [7] it was 1.53 µM. Besides, the GI50 is 7.45 µM in experiment [8], 3.94 µM in experiment [10] and 4.39 µM in experiment [9]. For the same molecule, the TGI in experiment [1] is 38 µM; in experiment [3], 21.9 µM; in experiment [4], 29.5 µM; in experiment [5], 6.31 µM; in experiment [6] it was 8.01 µM; in [7], 8.94 µM. Also, the TGI was 22.1 µM in experiment [8], greater than 100 µM in experiment [10] and 18.4 µM in experiment [9].
As for `O=c1cc(-c2ccccc2)nc2n1CCN2Cc1ccccc1`, the GI50 in experiment [2] was 16.2 µM; in [3] it was 39.1 µM; in [5], 35.7 µM; in experiment [6] it was 34 µM; in experiment [7], 21.2 µM; in [8], 26.1 µM. In addition, the GI50 is 47.2 µM in [10] and 21.3 µM in experiment [9]. Besides, the TGI in experiment [2] is 42.8 µM; in experiment [3], greater than 100 µM; in experiment [5], greater than 100 µM; in experiment [6], greater than 100 µM; in experiment [7], 53.2 µM; in [8], 68.1 µM. Moreover, the TGI was greater than 100 µM in [10] and 74.7 µM in experiment [9].
For the molecule `COC(=O)N/N=C/c1oc(-c2cccc([N+](=O)[O-])c2)c(-c2cccc([N+](=O)[O-])c2)c1[N+](=O)[O-]`, the TGI in experiment [1] is greater than 100 µM; in experiment [2], 78.3 µM; in [3] it was greater than 100 µM; in experiment [4], greater than 100 µM; in experiment [5] it was greater than 100 µM; in experiment [7] it was greater than 100 µM. Further, the TGI in [8], in experiment [10] and in experiment [9] was greater than 100 µM each time.
Regarding `O=[N+]([O-])C1C2C=CC(C2)[C@H]1c1ccccc1Cl` (stereo partly specified), the TGI in experiment [1] was greater than 88.2 µM; in experiment [2], greater than 100 µM; in experiment [3], greater than 100 µM; in [4], greater than 100 µM; in [5], greater than 100 µM; in [7] it was greater than 31.6 µM. In addition, the TGI in experiment [8] is greater than 100 µM; in experiment [10], greater than 100 µM; in [9], 97.7 µM.
In the case of `N#CC12C3C4CC5C6C4C1C6C(O)(C53)N2Cc1ccccc1` (stereo unspecified), the TGI in experiment [1], in experiment [2], in experiment [3], in experiment [4], in [5] and in [7] was greater than 100 µM throughout. Further, the TGI in experiment [8], in experiment [10] and in experiment [9] was greater than 100 µM each time.
